This note sets out measurements from patent publication US7824718B2, “Extract of Dioscorea opposita thunb showing neuronal cell-protecting activity for treating memory loss” (Tong Yang Moolsan Co., Ltd., priority 2005, dated 2010).

In this assay the test system is primary cultures of rat cortical neurons. Nature of the assay: Cell protective activity against glutamate induced-neurotoxicity (MTT assay). Type of assay: cell-based, Sprague-Dawley rats. As for the experimental part:
The extracts of Dioscorea opposita were suspended in DMSO (Sigma Co., Ltd) and diluted to the extent that the final concentration reaches to <0.1%. Each suspension was filtered with 0.22 μm membrane filter (Millipore Co., Ltd.) to sterilize. After the concentrations of each fractions were adjusted to 100 μg/ml and 10 μg/ml, The test samples with various final concentration of various fractions were named as follows: 100 μg/ml of hexane layer (H100), 10 μg/ml of hexane layer (H10), 100 μg/ml of water layer (W100), 10 μg/ml of water layer (W10), 100 μg/ml of ethyl-acetate layer (E100), 10 μg/ml of ethylacetate layer (E10), 100 μg/ml of chloroform layer (C100), 10 μg/ml of chloroform layer (C10), 100 μg/ml of butanol layer (B100), 10 μg/ml of butanol layer (B10) respectively. The cultured cell was pretreated with each test sample 1 hour before the glutamate treatment and the protective activity of D. opposita against the death of cerebral cortex cells was assessed.
The tested fractions were dissolved in DMSO and diluted to the extent that the final concentration reaches to <0.1%. The matured cerebral cortex cells for 15 days were pretreated with the test fractions for 1 hour and then exposed to 100 μM glutamate. After further incubation for 24 hour, the neuronal survival was quantified using by MTT assay, which yields blue formazan products in living cells.
(In general: Formazan colour is commonly taken as a measure of viable cells.)

Consider `C[C@]12N[C@H](Cc3ccccc31)c1ccccc12` [MK801], for which the “Protection activity (%)” value (MK801 positive control in Table 1, concentration not given) is given as 79%. The molecule also had a Relative protection (positive control at 10 μM, P<0.0001) of 80.6±1.6%.
